Assay results as given in patent US7807654B2, “Compositions and methods for treatment of mitochondrial diseases” (Wellstat Therapeutics Corporation, priority 1998, dated 2010).

Experiments:
[1] = tested on: mice given intrastriatal QA; experiment: Quinolinic acid (QA) model of excitotoxicity; format: in vivo, Swiss mice; settings: TAU 4 g/kg bw p.o. b.i.d.
[2] = tested on: mice infused with sodium azide; experiment: Subcutaneous azide infusion: mortality, body weight, TUNEL staining; design: species or system C57/BL/6N mice; settings: mouse, in vivo
[3] = tested on: 3NP treated mice; experiment: 3-nitropropionic acid (3NP) model of Huntington's disease; format: in vivo, Swiss mice; settings: at anytime during the study
Method: Male 6-8 month old Swiss mice (National Cancer Institute; NCI, Frederick, Md.) were treated with 3NP (65 mg/kg i.p.) daily for 4 days to induce mortality, neuronal cell loss and behavioral impairment with n=8/group. […] On day 9, the mice were perfuse fixed with 10% buffered formalin and processed for silver staining to detect neuronal damage. […] There was no mortality in the 3NP+TAU group, but 3 of 8 mice died in the vehicle+3NP group.
Behavioral scoring of the 3NP treated mice was to determine whether there was any motor impairment at anytime during the study. There were 88% of the control+3NP treated mice with behavioral impairment indicated by gross observation. A decreased incidence of impairment of only 50% was found in the TAU+3NP treated mice.
The silver staining was analyzed by a pathologist blinded to the identity of tissue samples. […] However, in the control+3NP treated mice, silver staining of synaptic terminals in the striatal area (caudate/putamen area) and substantia nigra was pronounced. Silver impregnation of axons and/or synaptic terminals in the thalamus, deep mesencephalon and/or reticular formation (medulla) was also found in […] of the control+3NP treated mice. The substantia nigra projects to the striatum and these areas are especially vulnerable to damage by 3NP. The damage to the substantia nigra and striatum was prevented by TAU.

[4] = tested on: child with epilepsy, ataxia, language delay, fat intolerance, dicarboxylic aciduria; experiment: Treatment of developmental delay (case, Example 4); format: in vivo, human; settings: daily dose of 0.1 to 0.3 g/kg/day
Method: A child with epilepsy, ataxia, language delay, and fat intolerance, and dicarboxylic aciduria was treated with triacetyluridine at a daily dose of 0.1 to 0.3 g/kg/day.

[5] = tested on: MPTP treated mice; experiment: MPTP model of Parkinson's disease, first study
[6] = tested on: MPTP treated mice; experiment: MPTP model of Parkinson's disease, second study; format: in vivo, C57/BL6 mice; settings: MPTP b.i.d. for 2 days, sacrificed on day 9, mean ± SEM
Method: A second study using MPTP (25 mg/kg i.p. b.i.d. for 2 days) was performed. […] TAU or vehicle was given orally (dose of TAU=4 g/kg bw b.i.d.) starting the day before MPTP administration and ending on day 8. Mice were sacrificed on day 9.

[7] = tested on: 3NP treated mice; experiment: 3-nitropropionic acid (3NP) model of epilepsy; format: in vivo, CD-1 mice; settings: for Latency to clonic seizure: mean ± SEM
Description: 3-nitropropionic acid (3NP) is a mitochondrial toxin that acts by inhibiting Complex II of the respiratory chain; it is used to induce brain lesions similar to those characteristic of Huntington's disease. Seizures can also be induced by the use of 3NP as a model of epilepsy and mitochondrial dysfunction. Urbanska et al., Eur J Pharmacol, 359: 55-8 (1998). Male CD-1 mice (National Cancer Institute, NCI, Frederick. Md.) weighing between […] were used throughout. Mice were divided into groups of 5 and animals for each group were randomly chosen from different cages to avoid possible influence of age. The mice were maintained on a 12 hr light dark cycle with free access to water and food. All experiments were performed during the light period between 9:00 and 16:00 hr. Mice (n=17-20) were given 160 mg/kg 3NP and followed for seizures. 3NP was made up at 16 mg or 18 mg/ml in sterile water (pH: 7.4). 3NP was administered i.p. in a volume of 0.1 m/10 g body weight. […] Seizures were assessed similar to the methods previously described (Roberts & Keith, J Pharmacol Exp Ther, 270:505-11, 1994; Urbanska et al., Eur J Pharmacol, 359:55-8, 1998).
Behavioral observations were performed within 120 min following application of 3-NP. Three major categories of convulsive seizure response were been considered and recorded: • 1. Clonic movements: the movements of the forelimbs accompanied by facial twitching; • 2. Explosive clonic movements: the movement of all four limbs involving running, jumping and bouncing; • 3. Tonic response: including tonic flexion and tonic extension of the all four limbs.
Mortality rate was evaluated at 120 min after 3NP injection.

[8] = tested on: taxol-treated mice; experiment: Taxol-induced neuropathy, tail-flick latency; format: in vivo; settings: nine days after initiation of taxol 21.6 mg/kg/day i.p. for 6 days; oral triacetyluridine 4000 mg/kg b.i.d.
Method: Two groups of 10 mice each were treated with taxol, 21.6 mg/kg/day for 6 consecutive days by intraperitoneal injection. An additional group of 10 mice received injections of vehicle alone. One of the groups of taxol-treated mice received oral triacetyluridine, 4000 mg/kg b.i.d. Nine days after the initiation of taxol treatments, nociceptive sensory deficits were tested by determining tail-flick latency after exposure of the tip of the tail to focused thermal radiation with an infrared heat lamp. In this system, delays in the tail-flick response to radiant heat correlate with sensory nerve deficits.

[9] = 160 mg/kg 3NP i.p., TAU 4 g/kg p.o. 2 hours prior, within 120 min

For CC(=O)OC[C@H]1O[C@@H](n2ccc(=O)[nH]c2=O)[C@H](OC(C)=O)[C@@H]1OC(C)=O [TAU, triacetyluridine], the “percent of mice surviving the 7 days” value ([1]; 50 nmoles QA bilaterally in striatum) was 73%, the “percent of mice surviving the 7 days” value ([1]; 100 nmoles QA bilaterally in striatum) was 19% and the “mortality due to 60 μg/hr azide infusion” value [2] was 30%. For the same molecule, the “mice with behavioral (motor) impairment by gross observation” value [3] was 50%, the “decline in seizure frequency” value [4] was 50% and the mortality ([5]; MPTP 30 mg/kg i.p. b.i.d. for 1.5 days, TAU 4 g/kg p.o. b.i.d.) was 28.6%. The “Striatal DA, MPTP-treated mice” value ([5]; first study, eight days after stopping MPTP, mean ± SEM) was 37.9 ± 7.4 ng DA/mg protein, the “Striatal DA, MPTP-treated mice” value [6] was 26.7 ± 0.9 ng DA/mg protein and the “Latency to clonic seizure” value ([7]; 160 mg/kg 3NP i.p., TAU 4 g/kg p.o. 2 hours prior) was 40.8 min. For the same molecule, the “Latency to clonic seizure” value ([7]; 160 mg/kg 3NP i.p., TAU 4 g/kg p.o. 2 hours prior, listed as TAU + 3NP) was 40.8 ± 4.9 min, the “% Clonic seizures” value [7, 9] was 70.6% and the “% Running seizures” value [7, 9] was 5.9%. The “% Mortality” value ([7]; at 120 min after 3NP injection) was 11.8% and the Tail flick latency [8] was 11.9 ± 0.7 s.
